This is an account of results in patent US20120157439A1, “RAF INHIBITOR COMPOUNDS AND METHODS OF USE THEREOF” (GENENTECH, INC., priority 2009, published 2012).

Where two headings read alike, the source gives them in different places. Some results are limits rather than exact numbers.

The target in the assay is T1, V600E full-length B-Raf (Homo sapiens, UniProt P15056, V600E).
T1 construct: 1 μM FSBA-MEK and 20 nM V600E full-length B-Raf; made in house; host or cells: sf9 insect cells (baculovirus)
Briefly: B-Raf IC50 Assay (B-RAF V600E inhibition assay, Example A). It counts as biochemical. An outline of the steps:
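Full-length V600E B-Raf (20 nM, from Sf9 baculovirus) was preincubated 15 min with 1 μM FSBA-modified wild-type MEK in pH 7.2 Pipes/KCl/MgCl2 buffer, then started with 4 μM ATP plus [γ-33P]ATP. After 60 min at 22 °C, TCA-quenched product was filter-captured and 33P incorporation counted by scintillation.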

Where [1] appears, read: B-Raf V600E assay of Example A: less than 100 nM, read-out: IC50.
Setting [2] is: B-Raf V600E assay of Example A: less than about 1 μM, read-out: IC50.
Where [3] appears, read: incorporation of radio labeled phosphate from [γ-33P]ATP into FSBA-modified wild-type MEK, 4 μM ATP, 20 nM V600E full-length B-Raf, 60-minute incubation, 22° C., read-out: BRAF V600E IC50.

Usually IC50 stands for the concentration needed to halve the response being measured.

T1 sequence (P15056 whole entry V600E): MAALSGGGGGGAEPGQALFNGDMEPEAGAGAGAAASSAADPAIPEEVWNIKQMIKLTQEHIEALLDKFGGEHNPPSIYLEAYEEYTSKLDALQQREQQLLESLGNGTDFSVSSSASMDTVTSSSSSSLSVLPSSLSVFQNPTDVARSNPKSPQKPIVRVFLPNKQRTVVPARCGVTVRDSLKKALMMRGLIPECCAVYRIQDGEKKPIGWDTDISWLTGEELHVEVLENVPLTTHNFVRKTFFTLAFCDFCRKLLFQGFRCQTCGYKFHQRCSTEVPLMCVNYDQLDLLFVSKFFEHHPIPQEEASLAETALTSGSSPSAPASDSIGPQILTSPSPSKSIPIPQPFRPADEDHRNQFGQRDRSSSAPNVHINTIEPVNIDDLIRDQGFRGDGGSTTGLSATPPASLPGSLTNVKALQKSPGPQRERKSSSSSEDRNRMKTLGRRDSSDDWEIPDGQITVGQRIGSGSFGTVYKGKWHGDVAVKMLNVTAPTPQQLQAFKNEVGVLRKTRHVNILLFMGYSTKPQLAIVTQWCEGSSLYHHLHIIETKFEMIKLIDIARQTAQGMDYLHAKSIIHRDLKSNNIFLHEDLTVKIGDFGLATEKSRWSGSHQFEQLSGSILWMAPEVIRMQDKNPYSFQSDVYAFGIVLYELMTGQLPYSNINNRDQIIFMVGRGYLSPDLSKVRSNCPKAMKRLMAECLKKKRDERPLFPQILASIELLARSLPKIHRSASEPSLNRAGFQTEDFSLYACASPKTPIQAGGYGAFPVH

Consider `O=C(Nc1c(Cl)ccc(NS(=O)(=O)CCCF)c1Cl)c1csc2cncnc12` [Example 110, Thieno[3,2-d]pyrimidine-7-carboxylic acid [2,6-dichloro-3-(3-fluoro-propane-1-sulfonyl-amino)-phenyl]-amide], for which the IC50 under setting [1] is < 100 nM, the half-maximal inhibitory concentration (IC50) under setting [2] was < 1000 nM and the IC50 under setting [3] turned out to be 2.69 nM.
`O=C(Nc1c(F)ccc(NS(=O)(=O)CCCF)c1F)c1csc2c(NC3CC3)ncnc12` [Example 64, 4-Cyclopropylamino-thieno[3,2-d]pyrimidine-7-carboxylic acid [2,6-difluoro-3-(3-fluoro-propane-1-sulfonylamino)-phenyl]amide]: the IC50 is < 100 nM under setting [1], < 1000 nM under setting [2] and 1.1 nM under setting [3].
In the case of `CCCS(=O)(=O)Nc1ccc(Cl)c(NC(=O)c2csc3c(NC4CCOC4)ncnc23)c1Cl` (stereo not shown) [Example 71, 4-(Tetrahydro-furan-3-ylamino)-thieno[3,2-d] pyrimidine-7-carboxylic acid [2,6-dichloro-3-(propane-1-sulfonyl-amino)phenyl]-amid], the IC50 reads like this: under setting [1], < 100 nM; under setting [2], < 1000 nM; under setting [3], 14.4 nM.
Regarding `Nc1ncnc2c(C(=O)Nc3c(Cl)ccc(NS(=O)(=O)CCCF)c3Cl)csc12` [Example 24, 4-Amino-thieno[3,2-d] pyrimidine-7-carboxylic acid [2,6-dichloro-3-(3-fluoro-propane-1-sulfonylamino)-phenyl]-amide], the 50% inhibitory concentration (IC50) is, setting by setting: under setting [1], < 100 nM; under setting [2], < 1000 nM; under setting [3], 0.11 nM.
For `CCCS(=O)(=O)Nc1cc(F)c(F)c(NC(=O)c2csc3c(N)ncnc23)c1F` [Example 23, 4-Amino-thieno[3,2-d] pyrimidine-7-carboxylic acid [2,3,6-trifluoro-5-(pro-pane-1-sulfonyl-amino)-phenyl]-amide], in that order: < 100 nM, < 1000 nM and 0.8 nM.
In the case of `CCCS(=O)(=O)Nc1ccc(Cl)c(NC(=O)c2csc3c(NC(C)C)ncnc23)c1Cl` [Example 70, 4-Isopropyl-amino-thieno [3,2-d] pyrimidine-7-carboxylic acid [2 6-dichloro-3-(propane-1-sulfonyl-amino)-phenyl]-amide], the IC50 is, setting by setting: under setting [1], < 100 nM; under setting [2], < 1000 nM; under setting [3], 3.4 nM.
In the case of `CCCS(=O)(=O)Nc1ccc(F)c(NC(=O)c2csc3c(C(F)F)ncnc23)c1F` [Example 42, 4-Difluoromethyl-thieno[3,2-d]pyrimidine-7-carboxylic acid [2,6-difluoro-3-(propane-1-sulfonylamino)-phenyl]-amide], the IC50 is < 100 nM under setting [1], < 1000 nM under setting [2] and 26 nM under setting [3].
For `O=C(Nc1c(Cl)ccc(NS(=O)(=O)CCCF)c1Cl)c1csc2c(NC3CC3)ncnc12` [Example 82, 4-Cyclopropyl-amino-thieno [3,2-d] pyrimidine-7-carboxylic acid [2,6-dichloro-3-(3-fluoro-propane-1-sulfonyl-amino)-phenyl]-amide], in that order: < 100 nM, < 1000 nM and 0.13 nM.
For `CCCS(=O)(=O)Nc1cccc(NC(=O)c2csc3c(N)ncnc23)c1Cl` [Example 25, 4-Amino-thieno[3,2-d]pyrimidine-7-carboxylic acid[2-chloro-3-(propane-1-sulfonylamino)-phenyl]-amide], in that order: < 100 nM, < 1000 nM and 7.2 nM.
For `O=C(Nc1c(Cl)ccc(NS(=O)(=O)CCCF)c1F)c1csc2c(NC3CC3)ncnc12` [Example 84, 4-Cyclopropyl-amino-thieno [3,2-d] pyrimidine-7-carboxylic acid [6-chloro-2-fluoro-3-(3-fluoropropane-1-sulfonyl-amino)-phenyl]-amide], in that order: < 100 nM, < 1000 nM and 0.25 nM.
On to `CCCS(=O)(=O)Nc1ccc(Cl)c(NC(=O)c2csc3c(NCC(F)F)ncnc23)c1Cl` [Example 69, 4-(2,2-Difluoro-ethylamino)-thieno[3,2-d] pyrimidine-7-carboxylic acid [2,6-dichloro-3-(propane-1-sulfonyl-amino)-phenyl]-amide], for which the half-inhibitory concentration (IC50) reads like this: under setting [1], < 100 nM; under setting [2], < 1000 nM; under setting [3], 2.2 nM.
On to `CCCNc1ncnc2c(C(=O)Nc3c(F)ccc(NS(=O)(=O)CCC)c3F)csc12` [Example 49, 4-Propylamino-thieno[3,2-d] pyrimidine-7-carboxylic acid [2,6-difluoro-3-(propane-1-sulfonylamino)-phenyl]-amide], for which the IC50 was < 100 nM under setting [1], < 1000 nM under setting [2] and 10.9 nM under setting [3].
For `CCCS(=O)(=O)Nc1cc(F)c(F)c(NC(=O)c2csc3c(NC4COC4)ncnc23)c1F` [Example 87, 4-(Oxetan-3-ylamino)-thieno[3,2-d] pyrimidine-7-carboxylic acid [2,3,6-trifluoro-5-(propane-1-sulfonyl-amino)-phenyl]amid], in that order: < 100 nM, < 1000 nM and 15.1 nM.
For `CCCS(=O)(=O)Nc1cc(F)c(F)c(NC(=O)c2csc3c(NC(C)C)ncnc23)c1F` [Example 91, 4-Isopropyl-amino-thieno [3,2-d] pyrimidine-7-carboxylic acid [2,3,6-trifluoro-5-(propane-1-sulfonyl-amino)-phenyl]-amide], in that order: < 100 nM, < 1000 nM and 27.9 nM.
Turning to `CCCS(=O)(=O)Nc1cccc(NC(=O)c2nsc3c(N)ncnc23)c1C#N` [Example 33, 7-Amino-isothiazolo[4,5-d]pyrimidine-3-carboxylic acid [2-cyano-3-(propane-1-sulfonylamino)-phenyl]-amide], the IC50 was < 100 nM under setting [1], < 1000 nM under setting [2] and 0.38 nM under setting [3].
Take `CCNc1ncnc2c(C(=O)Nc3c(Cl)ccc(NS(=O)(=O)CCCF)c3Cl)csc12` [Example 83, 4-Ethylamino-thieno[3,2-d] pyrimidine-7-carboxylic acid [2,6-dichloro-3-(3-fluoro-propane-1-sulfonyl-amino)-phenyl]-amide]: the 50% inhibitory concentration (IC50) was < 100 nM under setting [1], < 1000 nM under setting [2] and 0.32 nM under setting [3].
On to `CCCS(=O)(=O)Nc1ccc(F)c(NC(=O)c2c[nH]c3c(C)ncnc23)c1F` [Example 106, 4-Methyl-5H-pyrrolo[3,2-d]pyrimidine-7-carboxylic acid [2,6-difluoro-3-(propane-1-sulfonylamino)-phenyl]-amide], for which the IC50 by setting is: under setting [2], < 1000 nM; under setting [3], 189 nM.
With `Nc1ncnc2c(C(=O)Nc3c(F)ccc(NS(=O)(=O)CC4CC4)c3Cl)csc12` [Example 16, 4-Amino-thieno[3,2-d] pyrimidine-7-carboxylic acid (2-chloro-3-cycloprop-ylmethanesulfonyl-amino-6-fluoro-phenyl)-amide], the IC50 is, setting by setting: under setting [1], < 100 nM; under setting [2], < 1000 nM; under setting [3], 1.9 nM.
As to `CCCS(=O)(=O)Nc1cc(F)c(F)c(NC(=O)c2csc3c(NC)ncnc23)c1F` [Example 92, 4-Methyl-amino-thieno[3,2-d] pyrimidine-7-carboxylic acid [2,3,6-trifluoro-5-(propane-1-sulfonyl-amino)-phenyl]-amide], the IC50 is < 100 nM under setting [1], < 1000 nM under setting [2] and 13.2 nM under setting [3].
For `CCCS(=O)(=O)Nc1ccc(F)c(NC(=O)c2csc3c(Nc4cnn(C)c4)ncnc23)c1F` [Example 61, 4-(1-Methyl-1H-pyrazol-4-ylamino)-thieno[3,2-d] pyrimidine-7-carboxylic acid [2,6-difluoro-3-(propane-1-sulfonylamino)-phenyl]-amide], in that order: < 100 nM, < 1000 nM and 1.7 nM.
Take `CCCS(=O)(=O)Nc1ccc(F)c(NC(=O)c2csc3c(NC4CCCC4)ncnc23)c1F` [Example 54, 4-Cyclopentyl-amino-thieno [3,2-d] pyrimidine-7-carboxylic acid [2,6-difluoro-3-(propane-1-sulfonylamino)-phenyl]-amide]: the IC50 by setting is: under setting [2], < 1000 nM; under setting [3], 416 nM.
`Nc1ncnc2c(C(=O)Nc3c(F)ccc(NS(=O)(=O)N4CCCC4)c3F)csc12` [Example 28, 4-Amino-thieno[3,2-d]pyrimidine-7-carboxylic acid[2,6-difluoro-3-(pyrrolidine-1-sulfonylamino)-phenyl]-amide]: the 50% inhibitory concentration (IC50) is, setting by setting: under setting [1], < 100 nM; under setting [2], < 1000 nM; under setting [3], 11.6 nM.
For `CCCS(=O)(=O)Nc1ccc(Cl)c(NC(=O)c2csc3c(NCCF)ncnc23)c1Cl` [Example 74, 4-(2-Fluoro-ethylamino)-thieno[3,2-d] pyrimidine-7-carboxylic acid [2,6-dichloro-3-(propane-1-sulfonyl-amino)-phenyl]amide], in that order: < 100 nM, < 1000 nM and 0.5 nM.
For `CCS(=O)(=O)Nc1ccc(F)c(NC(=O)c2csc3c(N)ncnc23)c1F` [Example 2, 4-Amino-thieno pyrimidine-7-carboxylic acid (3-ethanesulfonylamino-2,6-difluoro-phenyl)-amide], in that order: < 100 nM, < 1000 nM and 12 nM.
